Measurements as given in US9890103B2, “Process for the production of (meth)acrylic acid and derivatives and polymers produced therefrom” (Lucite International UK Limited, priority 2011, dated 2018).

Tests used:
[1] = Extraction of acrylic and maleic acid into toluene/butanone mixtures; assay type: physicochemical; settings: 0.1M aq solution, equal volume
Method: (§1) The following experimental conditions were used unless indicated otherwise:— • 0.1M Acids • 1:1 vol:vol aq:solvent • Room Temperature • 1 minutes agitation time; 5 min settling time • Solvent is toluene unless where stated • Analysis by HPLC
In order to increase the solubility of the AA in the organic layer a higher polarity is likely to be required. The extraction of a 0.1M aq AA solution was studied with an equal volume of a mixture between toluene and butanone.

[2] = Extraction of mono- and dibasic acids from 0.1M aqueous solution into toluene or MMA/toluene mixtures; assay type: physicochemical; settings: for degree of extraction: equal volume, in %; for Fraction Transferred to Toluene: each acid 0.1M in water, equal volume of toluene
Method: as §1
Monobasic and dibasic acids likely to be present in aqueous solution following partial decomposition of mono and dicarboxylic acids expected to be found from decomposition of dibasic or tribasic acids were compared for their solubility in toluene.
Each acid, initially at 0.1M solution in water was separately tested for solubility in an equal volume of toluene.
Aqueous solutions were prepared of each of the dicarboxylic acids exemplified in comparative example 2. These were extracted with an equal volume of solvent mixtures of toluene and methyl methacrylate (MMA).
In order to compare the solubilities in the organic solvents in terms of partition coefficients each sample was converted to a partition coefficient based on the equation: [MAA]solv=K[MAA]^2aq

[3] = Concentration dependence of MAA extraction into toluene; assay type: physicochemical; settings: toluene/water, fitted to table 3 data
Method: as §1
A series of different concentrations of MAA in aqueous solution were extracted into toluene (1:1 by volume vs aqueous solution).
The fraction transferred increases with the concentration of MAA. The data from table 3 were plotted according to the equation: [MAA]tol=K[MAA]^2aq and the value K in the equation was evaluated as 14.6. The results are plotted in FIG. 1.

[4] = MAA extraction into 2-butanone/o-xylene 75:25; assay type: physicochemical; settings: 2-butanone:o-xylene 75:25
From the text: The efficiency of MAA extraction into a mixture of 2-butanone and o-xylene in the ratio 75:25 was studied.

[5] = MAA extraction into toluene with added NaOH and added di/tricarboxylic acids; assay type: physicochemical; settings: for amount of MAA transferred into toluene: 0.1M MAA aq, equivalent volume toluene
Method: The following experimental conditions were used unless indicated otherwise:— • 0.1M Acids • 1:1 vol:vol aq:solvent • Room Temperature • 1 minutes agitation time; 5 min settling time • Solvent is toluene unless where stated • Analysis by HPLC […] The results are shown in the first two rows of table 5 […] Very similar results were obtained. […] The aqueous solution was extracted with an equal volume of toluene at room temperature.

[6] = Solvent screen: transfer of methacrylic acid from aqueous solution into organic solvents; assay type: physicochemical; settings: 0.1M MAA aq, 1:1 vol:vol, room temperature
Method: as §1
A series of solvents were tested to examine the extent of transfer of methacrylic acid from an aqueous solution using the above procedure.

[7] = 2-butanone:o-xylene 75:25; reported maximum; cited from earlier work
[8] = Fraction of MMA in MMA/Toluene solvent mixture 0
[9] = Fraction of MMA in MMA/Toluene solvent mixture 0.1
[10] = Fraction of MMA in MMA/Toluene solvent mixture 0.2
[11] = Fraction of MMA in MMA/Toluene solvent mixture 0.3
[12] = Fraction of MMA in MMA/Toluene solvent mixture 0.4
[13] = Fraction of MMA in MMA/Toluene solvent mixture 0.5
[14] = Fraction of MMA in MMA/Toluene solvent mixture 0.6
[15] = Fraction of MMA in MMA/Toluene solvent mixture 0.7
[16] = Fraction of MMA in MMA/Toluene solvent mixture 0.8
[17] = Fraction of MMA in MMA/Toluene solvent mixture 0.9
[18] = Fraction of MMA in MMA/Toluene solvent mixture 1

## C=CC(=O)O [Acrylic acid]
[1]; 0 % Butanone in toluene
  % extracted: 5.01%
[1]; 10 % Butanone in toluene
  % extracted: 14.57%
[1]; 20 % Butanone in toluene
  % extracted: 25.26%
[1]; 30 % Butanone in toluene
  % extracted: 35.45%
[1]; 40 % Butanone in toluene
  % extracted: 44.14%
[1]; 50 % Butanone in toluene
  % extracted: 53.47%
[1]; 60 % Butanone in toluene
  % extracted: 57.31%
[1]; 70 % Butanone in toluene
  % extracted: 63.39%
[1]; 80 % Butanone in toluene
  % extracted: 67.47%
[1]; 90 % Butanone in toluene
  % extracted: 70.04%
[1]; 100 % Butanone
  % extracted: 65.56%

## C/C=C/C(=O)O [CT, Crotonic Acid]
[2]; [8]
  degree of extraction: 40.11
[2]; [9]
  degree of extraction: 46.72
[2]; [10]
  degree of extraction: 49.88
[2]; [11]
  degree of extraction: 53.62
[2]; [12]
  degree of extraction: 56.56
[2]; [13]
  degree of extraction: 61.15
[2]; [14]
  degree of extraction: 64.67
[2]; [15]
  degree of extraction: 68.07
[2]; [16]
  degree of extraction: 70.86
[2]; [17]
  degree of extraction: 73.21
[2]; [18]
  degree of extraction: 75.05
[2]
  Fraction Transferred to Toluene: 40.11%

## CC(C)(O)C(=O)O [HIB, Hydroxyisobutyric Acid]
[2]; [8]
  degree of extraction: 4.21
[2]; [9]
  degree of extraction: 4.8
[2]; [10]
  degree of extraction: 5.14
[2]; [11]
  degree of extraction: 6.38
[2]; [12]
  degree of extraction: 4.82
[2]; [13]
  degree of extraction: 5.76
[2]; [14]
  degree of extraction: 7.32
[2]; [15]
  degree of extraction: 19.71
[2]; [16]
  degree of extraction: 21.47
[2]; [17]
  degree of extraction: 23.32
[2]; [18]
  degree of extraction: 23.9
[2]
  Fraction Transferred to Toluene: 4.21%

## C=C(CC(=O)O)C(=O)O [IC, Itaconic Acid]
[2]; [8]
  degree of extraction: 0
[2]; [9]
  degree of extraction: 0
[2]; [10]
  degree of extraction: 0.29
[2]; [11]
  degree of extraction: 0.81
[2]; [12]
  degree of extraction: 1.69
[2]; [13]
  degree of extraction: 2.89
[2]; [14]
  degree of extraction: 4.34
[2]; [15]
  degree of extraction: 6.56
[2]; [16]
  degree of extraction: 9.57
[2]; [17]
  degree of extraction: 13.1
[2]; [18]
  degree of extraction: 17.58
[2]
  Fraction Transferred to Toluene: 0%

## C=C(C)C(=O)O [MAA, Methacrylic Acid]
[3]
  K in [MAA]tol=K[MAA]^2aq: 14.6
[4]
  MAA extracted into the organic phase: roughly 80%
[2]; [8]
  degree of extraction: 54.4
[2]; [9]
  degree of extraction: 58.85
[2]; [10]
  degree of extraction: 63.01
[2]; [11]
  degree of extraction: 67.25
[2]; [12]
  degree of extraction: 70.31
[2]; [13]
  degree of extraction: 74.28
[2]; [14]
  degree of extraction: 76.77
[2]; [15]
  degree of extraction: 79.42
[2]; [16]
  degree of extraction: 81.42
[2]; [17]
  degree of extraction: 83.02
[2]; [18]
  degree of extraction: 84.28
[2]
  Fraction Transferred to Toluene: 54.4%
[5]; 0.1M MAA + 0.05M NaOH + itaconic acid to 0.1M
  MAA extraction into toluene: 44.7%
[5]; after addition of 0.05M sodium hydroxide
  amount of MAA transferred into toluene: 26%
[5]; before NaOH addition
  amount of MAA transferred into toluene: 48%
[6]; solvent Benzene
  Average % Transfer: 50.1%
[6]; solvent Cyclohexane
  Average % Transfer: 26.9%
[6]; solvent Hexane
  Average % Transfer: 27.6%
[6]; solvent MMA
  Average % Transfer: 84.3%
[6]; solvent Mixed Xylenes
  Average % Transfer: 45.3%
[6]; solvent Pentane
  Average % Transfer: 28.3%
[6]; solvent Toluene
  Average % Transfer: 48.2%
[7]
  distribution coefficient for MAA, K: ~7.00

## C/C(=C\C(=O)O)C(=O)O [MC, Mesaconic Acid]
[2]; [8]
  degree of extraction: 0.64
[2]; [9]
  degree of extraction: 1.72
[2]; [10]
  degree of extraction: 4.5
[2]; [11]
  degree of extraction: 8.26
[2]; [12]
  degree of extraction: 13.02
[2]; [13]
  degree of extraction: 20.56
[2]; [14]
  degree of extraction: 27.82
[2]; [15]
  degree of extraction: 38.06
[2]; [16]
  degree of extraction: 47.19
[2]; [17]
  degree of extraction: 56.33
[2]; [18]
  degree of extraction: 63.45
[2]
  Fraction Transferred to Toluene: 0.64%

## O=C(O)/C=C\C(=O)O [Maleic acid]
[1]; 0 % Butanone in toluene
  % extracted: 0%
[1]; 10 % Butanone in toluene
  % extracted: 0.32%
[1]; 20 % Butanone in toluene
  % extracted: 1.46%
[1]; 30 % Butanone in toluene
  % extracted: 3.41%
[1]; 40 % Butanone in toluene
  % extracted: 5.19%
[1]; 50 % Butanone in toluene
  % extracted: 10.62%
[1]; 60 % Butanone in toluene
  % extracted: 10.77%
[1]; 70 % Butanone in toluene
  % extracted: 15.01%
[1]; 80 % Butanone in toluene
  % extracted: 19.88%
[1]; 90 % Butanone in toluene
  % extracted: 27.09%
[1]; 100 % Butanone
  % extracted: 34.32%

## CC(=O)C(=O)O [PY, Pyruvic Acid]
[2]; [8]
  degree of extraction: 0
[2]; [9]
  degree of extraction: 0
[2]; [10]
  degree of extraction: 0.3
[2]; [11]
  degree of extraction: 0.7
[2]; [12]
  degree of extraction: 1.17
[2]; [13]
  degree of extraction: 2.07
[2]; [14]
  degree of extraction: 3.01
[2]; [15]
  degree of extraction: 4.17
[2]; [16]
  degree of extraction: 5.57
[2]; [17]
  degree of extraction: 8.05
[2]; [18]
  degree of extraction: 10.71
[2]
  Fraction Transferred to Toluene: 0%
